Results: patent US20240083853A1, “HSD17B13 INHIBITORS AND USES THEREOF” (FL2022-001, Inc., priority 2020, published 2024)

Molecular target: T1, Recombinant human HSD17B13 enzyme (Homo sapiens, UniProt Q7Z5P4)
T1 sequence (Q7Z5P4 20-300): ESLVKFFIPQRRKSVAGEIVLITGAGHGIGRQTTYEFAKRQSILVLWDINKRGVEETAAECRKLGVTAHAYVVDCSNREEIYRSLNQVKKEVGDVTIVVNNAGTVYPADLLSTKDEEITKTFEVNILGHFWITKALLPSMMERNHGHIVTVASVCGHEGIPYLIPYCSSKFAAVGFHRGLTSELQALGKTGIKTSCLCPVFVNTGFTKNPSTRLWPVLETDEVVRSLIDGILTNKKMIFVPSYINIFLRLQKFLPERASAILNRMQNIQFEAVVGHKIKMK
Experiment: HSD17b13 NAD(P)H-Glo biochemical assay
Conditions: 50 uM estradiol, 1 mM NAD+, NAD(P)H-Glo luminescence; read-out: HSD17β13 IC50
Procedure, shortened: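 Recombinant human HSD17B13 in 20 mM Tris pH7.4 with 0.002% Tween-20 and 0.02% BSA was preincubated with inhibitor for 20 minutes at RT. The reaction ran 3 hours at 37° C with 50 uM estradiol and 1 mM NAD+ (final). NADH formed was detected by NAD(P)H-Glo luminescence after 1 hour at RT.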

SMILES | IC50
CC1(CO)CCN(c2ccc(-n3ncc4cc(F)c(O)c(F)c43)cc2)CC1 [Compound 20.17, 5,7-Difluoro-1-(4-(4-(hydroxymethyl)-4-methylpiperidin-1-yl)phenyl)-1H-indazol-6-ol] | 100 to 1000 nM
CS(=O)(=O)N1CCN(c2ccc(-n3ncc4cc(F)c(O)c(F)c43)nc2)CC1 [Compound 26.4, 5,7-Difluoro-1-(5-(4-(methylsulfonyl)piperazin-1-yl)pyridin-2-yl)-1H-indazol-6-ol] | 1000 to 30000 nM
CC(C)n1c(=O)n(-c2ccc(N3CCC(C)(C)CC3)cc2)c2c(F)c(O)c(F)cc21 [Compound 21.13, 3-(4-(4,4-Dimethylpiperidin-1-yl)phenyl)-4,6-difluoro-5-hydroxy-1-isopropyl-1H-benzo[d]imidazol-2(3H)-one] | 100 to 1000 nM
CS(=O)(=O)N1CCN(c2ccc(-n3nnc4cc(F)c(O)c(F)c43)nn2)CC1 [Compound 26.25, 5,7-Difluoro-1-(6-(4-(methylsulfonyl)piperazin-1-yl)pyridazin-3-yl)-1H-benzo[d][1,2,3]triazol-6-ol] | 1000 to 30000 nM
Oc1cc2c(cnn2-c2ccc(Oc3ccccc3)cc2)cc1F [Compound 2.3, 5-Fluoro-1-(4-phenoxyphenyl)-1H-indazol-6-o1] | 100 to 1000 nM
CC(C)N1CCN(c2ccc(-n3ncc4cc(F)c(O)c(F)c43)cc2)CC1 [Compound 24.2, 5,7-Difluoro-1-(4-(4-isopropylpiperazin-1-yl)phenyl)-1H-indazol-6-ol] | 100 to 1000 nM
Oc1c(F)cc2cnn(-c3ccc(N4CCSCC4)cc3)c2c1F [Compound 23.4, 5,7-Difluoro-1-(4-thiomorpholinophenyl)-1H-indazol-6-ol] | < 100 nM
CS(=O)(=O)N1CCN(c2ccc(-n3ncc4cc(F)c(O)c(F)c43)c(F)c2)CC1 [Compound 20.8, 5,7-Difluoro-1-(2-fluoro-4-(4-(methylsulfonyl)piperazin-1-yl)phenyl)-1H-indazol-6-ol] | < 100 nM
CC1(C)CCN(c2ccc(-n3ncc4c(C(F)(F)F)c(F)c(O)nc43)cc2)CC1 [Compound 7.4, 1-(4-(4,4-Dimethylpiperidin-1-yl)phenyl)-5-fluoro-4-(trifluoromethyl)-1H-pyrazolo[3,4-b]pyridin-6-ol] | 1000 to 30000 nM
Cc1c(F)c(O)cc2c1cnn2-c1ccc(-c2cccc(O)c2)cc1 [Compound 4.2, 5-Fluoro-1-(3′-hydroxy-[1,1′-biphenyl]-4-yl)-4-methyl-1H-indazol-6-ol] | 100 to 1000 nM
C[C@H]1CN(c2ccc(-n3ncc4cc(F)c(O)c(F)c43)cc2)C[C@H](C)O1 [Compound 24.9, 1-(4-((2S,6S)-2,6-Dimethylmorpholino)phenyl)-5,7-difluoro-1H-indazol-6-ol] | < 100 nM
Oc1c(F)cc2cnn(-c3ccc(N4CC5(CCOCC5)C4)cc3)c2c1F [Compound 23.26, 1-(4-(7-Oxa-2-azaspiro[3.5]nonan-2-yl)phenyl)-5,7-difluoro-1H-indazol-6-ol] | < 100 nM
CC1(C#N)CN(c2ccc(-n3ncc4cc(F)c(O)c(F)c43)cc2)C1 [Compound 23.27, 1-(4-(5,7-Difluoro-6-hydroxy-1H-indazol-1-yl)phenyl)-3-methylazetidine-3-carbonitrile] | < 100 nM
Cc1cc(-n2ncc3cc(F)c(O)c(F)c32)ccc1N1CCN(S(C)(=O)=O)CC1 [Compound 20.3, 5,7-Difluoro-1-(3-methyl-4-(4-(methylsulfonyl)piperazin-1-yl)phenyl)-1H-indazol-6-ol] | < 100 nM
CC1(C)CCN(c2ncc(-n3ncc4cc(F)c(O)c(F)c43)cn2)CC1 [Compound 6.1, 1-(2-(4,4-Dimethylpiperidin-1-yl)pyrimidin-5-yl)-5,7-difluoro-1H-indazol-6-ol] | < 100 nM
CS(=O)(=O)N1CCN(c2cnc(-n3ncc4cc(F)c(O)c(F)c43)cn2)CC1 [Compound 26.7, 5,7-Difluoro-1-(5-(4-(methylsulfonyl)piperazin-1-yl)pyrazin-2-yl)-1H-indazol-6-ol] | 100 to 1000 nM
Oc1c(F)cc2cnn(-c3ccc(-c4ccc(Cl)cc4)nc3)c2c1F [Compound 18.2, 1-(6-(4-Chlorophenyl)pyridin-3-yl)-5,7-difluoro-1H-indazol-6-ol] | < 100 nM
Oc1c(F)cc2nnn(-c3cnc(N4CC5(CCOCC5)C4)cn3)c2c1F [Compound 26.18, 1-(5-(7-Oxa-2-azaspiro[3.5]nonan-2-yl)pyrazin-2-yl)-5,7-difluoro-1H-benzo[d][1,2,3]triazol-6-ol] | 100 to 1000 nM
Oc1c(F)cc2cnn(-c3ccc(N4CCC(F)(F)CC4)cc3)c2c1F [Compound 23.20, 1-(4-(4,4-Difluoropiperidin-1-yl)phenyl)-5,7-difluoro-1H-indazol-6-ol] | < 100 nM

SMILES | IC50
CS(=O)(=O)C1CCN(c2ccc(-n3ncc4cc(F)c(O)c(F)c43)cc2)C1 (stereo not drawn) [Compound 22.2, 5,7-Difluoro-1-(4-(3-(methylsulfonyl)pyrrolidin-1-yl)phenyl)-1H-indazol-6-ol] | 100 to 1000 nM
Oc1c(F)cc2cnn(-c3ccc(C4CCCCC4)cc3)c2c1F [Compound 27.5, 1-(4-Cyclohexylphenyl)-5,7-difluoro-1H-indazol-6-ol] | < 100 nM
CC(C)S(=O)(=O)N1CCN(c2ccc(-n3ncc4cc(F)c(O)c(F)c43)cc2)CC1 [Compound 23.9, 5,7-Difluoro-1-(4-(4-(isopropylsulfonyl)piperazin-1-yl)phenyl)-1H-indazol-6-ol] | 100 to 1000 nM
Oc1c(F)cc2nnn(-c3ccc(N4CC5(CCOCC5)C4)nc3)c2c1F [Compound 26.12, 1-(6-(7-Oxa-2-azaspiro[3.5]nonan-2-yl)pyridin-3-yl)-5,7-difluoro-1H-benzo[d][1,2,3]triazol-6-ol] | 100 to 1000 nM
CCC1(CC)CCN(c2ccc(-n3ncc4cc(F)c(O)c(F)c43)cc2)CC1 [Compound 24.7, 1-(4-(4,4-Diethylpiperidin-1-yl)phenyl)-5,7-difluoro-1H-indazol-6-ol] | < 100 nM
Oc1c(F)cc2cnn(-c3ccc(-c4ccc(Cl)cc4)cc3)c2c1F [Compound 13, 1-(4′-Chloro-[1,1′-biphenyl]-4-yl)-5,7-difluoro-1H-indazol-6-ol] | < 100 nM
Oc1cccc(-c2ccc(-n3ncc4cc(F)c(O)c(F)c43)cc2)c1 [Compound 13.12, 5,7-Difluoro-1-(3′-hydroxy-[1,1′-biphenyl]-4-yl)-1H-indazol-6-ol] | < 100 nM
Oc1cc2c(cnn2-c2ccc(-c3ccccc3)cc2)cc1F [Compound 2.2, 1-([1,1′-Biphenyl]-4-yl)-5-fluoro-1H-indazol-6-ol] | 100 to 1000 nM
C[C@H]1CN(c2ccc(-n3ncc4cc(F)c(O)c(F)c43)cc2)C[C@H](C)S1 (relative stereo) [Compound 32.5, 1-(4-(trans-2,6-Dimethylthiomorpholino)phenyl)-5,7-difluoro-1H-indazol-6-ol] | < 100 nM
Oc1cc2c(nnn2-c2ccc(N3CC4(CCOCC4)C3)cc2)c(Cl)c1F [Compound 40, 1-(4-(7-Oxa-2-azaspiro[3.5]nonan-2-yl)phenyl)-4-chloro-5-fluoro-1H-benzo[d][1,2,3]triazol-6-ol] | < 100 nM
Oc1cc2c(cnn2-c2ccc(-c3cccc(F)c3)cc2)cc1F [Compound 13.4, 5-Fluoro-1-(3′-fluoro-[1,1′-biphenyl]-4-yl)-1H-indazol-6-ol] | 100 to 1000 nM
Oc1ccc(-c2ccc(-n3ncc4cc(F)c(O)c(F)c43)cc2)cc1 [Compound 13.1, 5,7-Difluoro-1-(4′-hydroxy-[1,1′-biphenyl]-4-yl)-1H-indazol-6-ol] | < 100 nM
COc1nn(-c2ccc(N3CCC(C)(C)CC3)cc2)c2c(F)c(O)c(F)cc12 [Compound 37.1, 1-(4-(4,4-Dimethylpiperidin-1-yl)phenyl)-5,7-difluoro-3-methoxy-1H-indazol-6-ol] | 100 to 1000 nM
Oc1cc(F)c2cnn(-c3ccc(-c4cccc(O)c4Br)cc3)c2c1 [Compound 2.9, 1-(2′-Bromo-3′-hydroxy-[1,1′-biphenyl]-4-yl)-4-fluoro-1H-indazol-6-ol] | 1000 to 30000 nM
Cn1c(=O)n(-c2ccc(N3CCC(C)(C)CC3)cc2)c2c(F)c(O)c(F)cc21 [Compound 21.6, 3-(4-(4,4-Dimethylpiperidin-1-yl)phenyl)-4,6-difluoro-5-hydroxy-1-methyl-1H-benzo[d]imidazol-2(3H)-one] | < 100 nM
CC1(C)CCN(c2ccc(-n3ncc4c(Cl)c(F)c(O)cc43)cc2)CC1 [Compound 5.2, 4-Chloro-1-(4-(4,4-dimethylpiperidin-1-yl)phenyl)-5-fluoro-1H-indazol-6-ol] | 100 to 1000 nM
CCC1(C)CN(c2ccc(-n3ncc4cc(F)c(O)c(F)c43)cc2)C1 [Compound 24.4, 1-(4-(3-Ethyl-3-methylazetidin-1-yl)phenyl)-5,7-difluoro-1H-indazol-6-ol] | < 100 nM
CS(=O)(=O)c1ccccc1-c1ccc(-n2ncc3cc(F)c(O)cc32)cc1 [Compound 13.24, 5-Fluoro-1-(2′-(methylsulfonyl)-[1,1′-biphenyl]-4-yl)-1H-indazol-6-ol] | 1000 to 30000 nM

Same assay, conditions: 3 h; at 10 uM compound; read-out: HSD17β13 % at 10 uM

SMILES | inhibition at 10 µM
Cc1nc2cc(F)c(O)c(F)c2n1-c1ccc(N2CCC(C)(C)CC2)cc1 [Compound 21.8, 1-(4-(4,4-Dimethylpiperidin-1-yl)phenyl)-5,7-difluoro-2-methyl-1H-benzo[d]imidazol-6-ol] | 35%

Same assay, conditions: 3 h; at 100 uM compound; read-out: HSD17β13 % at 100 uM

SMILES | inhibition at 100 µM
CC(=O)Nc1ccc(-c2ccc(-n3ncc4cc(F)c(O)cc43)cc2)cc1 [Compound 13.32, N-(4′-(5-Fluoro-6-hydroxy-1H-indazol-1-yl)-[1,1′-biphenyl]-4-yl)acetamide] | 40%
